ChEMBL document CHEMBL1201862, “PubChem BioAssay data set” (2004)
Calls of active or inactive are those of the source.

What was measured:
SUMO E1/E2 = SUMO E1/E2 (Homo sapiens, UniProt P63279+Q9UBE0+Q9UBT2); experiment: SAR analysis of SUMOylation using HTRF in an in-Vitro dose response assay. [Related pubchem assays (depositor defined):AID2006, AID2011, AID2018, AID2069, AID2658]; type: functional
SUMO-activating enzyme = SUMO-activating enzyme (Homo sapiens, UniProt Q9UBT2); experiment: blockers of UBC9-mediated SUMO conjugation – biochemical, AlphaScreen, SUMOylation inhibitor project, confirmation (AID 2018); type: functional
Chain of SUMO-activating enzyme (Q9UBE0 whole entry): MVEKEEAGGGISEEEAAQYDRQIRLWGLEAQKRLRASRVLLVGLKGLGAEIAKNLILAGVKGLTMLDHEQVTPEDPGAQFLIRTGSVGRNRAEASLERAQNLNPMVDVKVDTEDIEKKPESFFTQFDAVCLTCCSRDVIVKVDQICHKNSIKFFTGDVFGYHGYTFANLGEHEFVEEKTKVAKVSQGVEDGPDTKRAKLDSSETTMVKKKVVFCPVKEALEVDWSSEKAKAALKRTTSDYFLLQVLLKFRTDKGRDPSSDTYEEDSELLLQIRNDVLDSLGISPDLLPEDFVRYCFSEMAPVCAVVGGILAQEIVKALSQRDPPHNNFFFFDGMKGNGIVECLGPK
Chain of SUMO-activating enzyme (Q9UBT2 whole entry): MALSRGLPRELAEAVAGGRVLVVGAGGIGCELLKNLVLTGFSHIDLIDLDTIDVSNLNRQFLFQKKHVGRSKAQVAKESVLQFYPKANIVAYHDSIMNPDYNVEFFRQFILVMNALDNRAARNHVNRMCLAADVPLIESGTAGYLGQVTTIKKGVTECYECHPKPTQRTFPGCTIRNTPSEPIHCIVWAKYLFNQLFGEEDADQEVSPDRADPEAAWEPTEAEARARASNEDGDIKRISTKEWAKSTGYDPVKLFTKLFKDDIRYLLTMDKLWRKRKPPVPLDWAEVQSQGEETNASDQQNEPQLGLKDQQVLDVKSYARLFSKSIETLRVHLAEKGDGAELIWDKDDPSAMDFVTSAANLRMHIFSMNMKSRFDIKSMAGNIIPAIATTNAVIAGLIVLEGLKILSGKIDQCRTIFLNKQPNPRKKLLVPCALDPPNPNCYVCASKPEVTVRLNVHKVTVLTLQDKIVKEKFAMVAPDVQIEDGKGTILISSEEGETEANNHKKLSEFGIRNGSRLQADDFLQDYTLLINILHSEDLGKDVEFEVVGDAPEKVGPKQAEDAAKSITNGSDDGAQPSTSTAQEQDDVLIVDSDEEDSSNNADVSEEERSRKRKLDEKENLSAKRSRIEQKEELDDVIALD

[1] = MIN6 cell viability loss – mouse insulinoma, cytotoxicity control, dose response (AID 2122); type: functional;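 note: confirmatory high-throughput counterscreen run to flag cytotoxic compounds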
[2] = decrease of insulin promoter-GFP reporter – imaging, high-content screening, mouse beta cells (AID 1628); type: functional; conditions: MIN6
[3] = HEK-293T viability loss after treatment – luminescence, T-cell screen hits, cytotoxicity control for TCR NF-kB inhibitor project, dose response (AID 489026); type: functional, cell-based;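 note: cells exposed to compound about 14 hours before the viability readout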
HEK293 = experiment: cells; conditions: Homo sapiens;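 note: cells exposed to compound for 14 hours overnight before viability readout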
Tumor necrosis factor = Tumor necrosis factor (Homo sapiens, UniProt P01375); experiment: analog potency on TNFa NF-kB signaling – cell-based, revised, SAR follow-up (AID 2337); type: functional
Chain of Tumor necrosis factor (P01375 whole entry, the tested form may be a part): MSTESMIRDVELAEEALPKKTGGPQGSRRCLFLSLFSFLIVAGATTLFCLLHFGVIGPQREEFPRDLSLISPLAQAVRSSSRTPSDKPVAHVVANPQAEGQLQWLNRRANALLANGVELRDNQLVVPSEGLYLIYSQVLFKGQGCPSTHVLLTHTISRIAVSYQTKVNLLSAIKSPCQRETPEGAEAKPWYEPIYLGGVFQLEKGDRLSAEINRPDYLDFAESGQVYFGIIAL

[4] = target: T1, Nucleotide-binding oligomerization domain-containing protein 1 (Homo sapiens, UniProt Q9Y239); experiment: blockers of NOD1 pathway activity – revised, SAR follow-up (AID 2333); type: functional
T1 sequence (Q9Y239 whole entry): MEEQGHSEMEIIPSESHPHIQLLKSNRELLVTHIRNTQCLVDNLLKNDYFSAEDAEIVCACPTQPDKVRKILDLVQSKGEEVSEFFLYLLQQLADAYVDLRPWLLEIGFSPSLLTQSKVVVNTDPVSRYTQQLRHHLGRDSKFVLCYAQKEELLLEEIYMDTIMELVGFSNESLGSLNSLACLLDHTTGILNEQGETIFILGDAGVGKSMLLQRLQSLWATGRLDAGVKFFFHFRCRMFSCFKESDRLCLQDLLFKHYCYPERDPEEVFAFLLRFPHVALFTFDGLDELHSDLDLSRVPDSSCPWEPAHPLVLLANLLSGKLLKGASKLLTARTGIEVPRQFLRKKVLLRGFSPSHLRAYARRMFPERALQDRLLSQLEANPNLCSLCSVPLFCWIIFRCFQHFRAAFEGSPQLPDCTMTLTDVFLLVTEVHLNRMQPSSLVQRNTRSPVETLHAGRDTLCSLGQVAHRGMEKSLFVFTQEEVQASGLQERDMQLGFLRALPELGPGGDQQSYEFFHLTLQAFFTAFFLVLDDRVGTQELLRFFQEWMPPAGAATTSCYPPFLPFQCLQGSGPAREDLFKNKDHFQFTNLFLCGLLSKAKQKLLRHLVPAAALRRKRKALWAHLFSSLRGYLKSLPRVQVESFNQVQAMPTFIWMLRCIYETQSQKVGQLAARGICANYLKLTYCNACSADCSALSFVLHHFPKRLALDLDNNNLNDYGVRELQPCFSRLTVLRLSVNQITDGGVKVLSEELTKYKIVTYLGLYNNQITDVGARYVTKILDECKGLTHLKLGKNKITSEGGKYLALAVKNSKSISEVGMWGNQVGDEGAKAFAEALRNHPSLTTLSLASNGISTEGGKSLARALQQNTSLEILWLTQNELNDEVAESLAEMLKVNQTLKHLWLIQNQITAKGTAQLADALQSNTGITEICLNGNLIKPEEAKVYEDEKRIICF

Cytochrome P450 2D6 = Cytochrome P450 2D6 (Homo sapiens, UniProt P10635);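 note: CYP2D6 member of a cytochrome P450 panel assay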
Chain of Cytochrome P450 2D6 (P10635 whole entry): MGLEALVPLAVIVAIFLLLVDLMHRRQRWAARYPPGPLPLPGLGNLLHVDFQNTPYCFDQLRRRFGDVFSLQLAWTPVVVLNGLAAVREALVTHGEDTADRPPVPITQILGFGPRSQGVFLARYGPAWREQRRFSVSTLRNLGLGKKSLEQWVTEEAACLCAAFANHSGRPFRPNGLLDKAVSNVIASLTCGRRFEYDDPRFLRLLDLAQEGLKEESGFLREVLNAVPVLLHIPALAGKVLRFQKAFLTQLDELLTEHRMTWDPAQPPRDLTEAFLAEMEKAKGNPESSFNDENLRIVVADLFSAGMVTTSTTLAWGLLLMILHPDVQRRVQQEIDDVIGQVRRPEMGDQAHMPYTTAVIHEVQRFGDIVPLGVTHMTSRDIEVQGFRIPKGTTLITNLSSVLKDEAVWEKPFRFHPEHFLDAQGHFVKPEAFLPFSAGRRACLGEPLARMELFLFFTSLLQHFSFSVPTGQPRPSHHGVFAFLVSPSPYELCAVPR

Cytochrome P450 3A4 = Cytochrome P450 3A4 (Homo sapiens, UniProt P08684);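 note: CYP3A4 tested as one member of a cytochrome P450 panel screen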
Chain of Cytochrome P450 3A4 (P08684 whole entry): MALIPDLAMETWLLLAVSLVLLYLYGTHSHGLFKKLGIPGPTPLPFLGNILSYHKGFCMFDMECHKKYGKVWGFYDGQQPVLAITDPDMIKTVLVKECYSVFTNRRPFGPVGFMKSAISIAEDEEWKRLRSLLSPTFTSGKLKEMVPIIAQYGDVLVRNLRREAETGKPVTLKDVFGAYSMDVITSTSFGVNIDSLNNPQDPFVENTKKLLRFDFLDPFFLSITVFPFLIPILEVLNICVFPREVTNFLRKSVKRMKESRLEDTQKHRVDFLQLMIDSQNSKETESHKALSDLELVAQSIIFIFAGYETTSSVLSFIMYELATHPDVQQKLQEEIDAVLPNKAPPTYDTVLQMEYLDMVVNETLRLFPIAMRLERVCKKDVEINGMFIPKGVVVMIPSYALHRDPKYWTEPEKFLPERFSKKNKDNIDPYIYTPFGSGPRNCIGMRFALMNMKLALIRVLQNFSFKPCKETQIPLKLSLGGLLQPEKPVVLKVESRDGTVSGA

Cytochrome P450 2C19 = Cytochrome P450 2C19 (Homo sapiens, UniProt P33261); experiment: Cytochrome panel assay with activity outcomes. Panel member name: p450-cyp2c19 Compounds with AC50 equal or less than 10 uM are considered active; type: functional; conditions: read-out: AC50
Chain of Cytochrome P450 2C19 (P33261 whole entry): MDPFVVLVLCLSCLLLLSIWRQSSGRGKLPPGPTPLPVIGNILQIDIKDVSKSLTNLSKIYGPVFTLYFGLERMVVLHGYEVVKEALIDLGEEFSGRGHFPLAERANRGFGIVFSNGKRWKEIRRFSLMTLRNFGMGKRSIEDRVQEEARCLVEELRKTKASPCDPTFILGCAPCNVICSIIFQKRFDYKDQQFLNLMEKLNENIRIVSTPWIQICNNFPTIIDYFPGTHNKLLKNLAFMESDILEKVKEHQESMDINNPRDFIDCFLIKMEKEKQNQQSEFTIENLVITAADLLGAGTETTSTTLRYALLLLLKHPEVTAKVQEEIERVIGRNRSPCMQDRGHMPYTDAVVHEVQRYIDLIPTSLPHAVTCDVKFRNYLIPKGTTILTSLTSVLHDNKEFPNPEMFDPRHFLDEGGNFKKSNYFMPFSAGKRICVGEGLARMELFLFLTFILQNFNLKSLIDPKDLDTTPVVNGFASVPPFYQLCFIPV

[5] = target: T2, Microphthalmia-associated transcription factor (Homo sapiens, UniProt O75030); experiment: reducers of TRPM1 reporter luminescence, concentration series – cell-based, SK-MEL-5, cherry-picked, set 3, MITF inhibitor project, dose response (AID 493073); type: functional;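 note: SK-MEL-5 melanoma cells with luciferase driven by the MITF target TRPM1 promoter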
T2 sequence (O75030 whole entry): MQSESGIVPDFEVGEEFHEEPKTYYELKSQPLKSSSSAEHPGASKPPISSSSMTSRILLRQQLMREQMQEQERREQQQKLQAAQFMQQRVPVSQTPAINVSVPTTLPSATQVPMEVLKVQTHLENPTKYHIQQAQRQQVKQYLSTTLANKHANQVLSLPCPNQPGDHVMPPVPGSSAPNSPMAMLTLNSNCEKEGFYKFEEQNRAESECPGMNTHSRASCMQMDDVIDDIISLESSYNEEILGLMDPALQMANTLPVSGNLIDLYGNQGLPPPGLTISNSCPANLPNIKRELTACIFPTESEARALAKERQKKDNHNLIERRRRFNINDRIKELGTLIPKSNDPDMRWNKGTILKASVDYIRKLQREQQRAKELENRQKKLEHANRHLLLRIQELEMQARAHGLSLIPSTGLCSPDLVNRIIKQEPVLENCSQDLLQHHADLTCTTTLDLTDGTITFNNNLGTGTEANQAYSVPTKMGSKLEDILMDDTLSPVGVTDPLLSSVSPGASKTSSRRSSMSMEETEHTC

Exodeoxyribonuclease V = target: T3, Exodeoxyribonuclease V (Escherichia coli (strain K12), UniProt P04993+P07648+P08394); experiment: RecBCD inhibition via phage-restricted bacterial growth – absorbance, V66 E. coli, mutant T4 phage, counter-screen for AddAB inhibitor project, dose response (AID 492957); type: functional, cell-based, Escherichia coli str. K-12 substr. MG1655
T3 sequence (P04993 whole entry): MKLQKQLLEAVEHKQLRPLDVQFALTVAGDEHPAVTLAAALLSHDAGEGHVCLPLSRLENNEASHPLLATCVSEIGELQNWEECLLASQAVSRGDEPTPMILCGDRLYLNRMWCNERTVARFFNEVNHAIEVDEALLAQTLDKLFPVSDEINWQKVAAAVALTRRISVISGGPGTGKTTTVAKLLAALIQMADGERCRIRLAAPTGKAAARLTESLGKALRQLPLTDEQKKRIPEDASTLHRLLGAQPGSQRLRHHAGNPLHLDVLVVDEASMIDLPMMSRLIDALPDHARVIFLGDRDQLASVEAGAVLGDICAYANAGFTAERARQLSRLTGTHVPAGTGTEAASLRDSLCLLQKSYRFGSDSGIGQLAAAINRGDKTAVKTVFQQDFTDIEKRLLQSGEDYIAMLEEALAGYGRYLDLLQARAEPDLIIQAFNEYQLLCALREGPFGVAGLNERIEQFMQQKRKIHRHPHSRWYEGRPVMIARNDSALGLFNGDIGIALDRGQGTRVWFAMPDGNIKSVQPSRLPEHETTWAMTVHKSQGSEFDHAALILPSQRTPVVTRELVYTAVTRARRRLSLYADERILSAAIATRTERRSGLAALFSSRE
T3 sequence (P07648 whole entry): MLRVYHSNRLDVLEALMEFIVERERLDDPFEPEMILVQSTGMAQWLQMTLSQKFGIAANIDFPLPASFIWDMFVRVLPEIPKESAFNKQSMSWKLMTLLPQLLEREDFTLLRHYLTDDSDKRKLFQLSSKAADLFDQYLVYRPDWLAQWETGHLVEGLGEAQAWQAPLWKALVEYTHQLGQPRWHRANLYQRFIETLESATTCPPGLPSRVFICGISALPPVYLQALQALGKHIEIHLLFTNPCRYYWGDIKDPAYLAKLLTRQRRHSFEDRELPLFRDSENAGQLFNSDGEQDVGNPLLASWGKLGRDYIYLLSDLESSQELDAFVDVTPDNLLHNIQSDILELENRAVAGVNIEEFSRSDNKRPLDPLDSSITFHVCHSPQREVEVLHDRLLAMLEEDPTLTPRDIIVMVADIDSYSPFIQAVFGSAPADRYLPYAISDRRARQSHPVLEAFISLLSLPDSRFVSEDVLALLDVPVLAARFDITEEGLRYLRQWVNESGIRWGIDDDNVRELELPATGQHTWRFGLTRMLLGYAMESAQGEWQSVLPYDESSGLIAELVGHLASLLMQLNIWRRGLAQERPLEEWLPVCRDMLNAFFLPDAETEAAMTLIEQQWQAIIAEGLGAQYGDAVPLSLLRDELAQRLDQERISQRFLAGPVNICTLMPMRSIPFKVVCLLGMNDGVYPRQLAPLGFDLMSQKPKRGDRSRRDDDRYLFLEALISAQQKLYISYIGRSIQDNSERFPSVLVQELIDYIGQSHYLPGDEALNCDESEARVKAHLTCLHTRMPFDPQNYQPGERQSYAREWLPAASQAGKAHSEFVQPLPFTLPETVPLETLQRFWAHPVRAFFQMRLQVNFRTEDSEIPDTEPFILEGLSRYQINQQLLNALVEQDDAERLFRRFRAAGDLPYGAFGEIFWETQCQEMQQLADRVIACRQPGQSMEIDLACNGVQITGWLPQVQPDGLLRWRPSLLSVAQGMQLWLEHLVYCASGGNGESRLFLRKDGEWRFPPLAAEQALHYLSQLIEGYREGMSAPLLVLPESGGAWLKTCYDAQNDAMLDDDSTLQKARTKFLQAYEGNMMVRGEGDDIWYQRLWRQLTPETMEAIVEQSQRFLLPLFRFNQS
T3 sequence (P08394 whole entry): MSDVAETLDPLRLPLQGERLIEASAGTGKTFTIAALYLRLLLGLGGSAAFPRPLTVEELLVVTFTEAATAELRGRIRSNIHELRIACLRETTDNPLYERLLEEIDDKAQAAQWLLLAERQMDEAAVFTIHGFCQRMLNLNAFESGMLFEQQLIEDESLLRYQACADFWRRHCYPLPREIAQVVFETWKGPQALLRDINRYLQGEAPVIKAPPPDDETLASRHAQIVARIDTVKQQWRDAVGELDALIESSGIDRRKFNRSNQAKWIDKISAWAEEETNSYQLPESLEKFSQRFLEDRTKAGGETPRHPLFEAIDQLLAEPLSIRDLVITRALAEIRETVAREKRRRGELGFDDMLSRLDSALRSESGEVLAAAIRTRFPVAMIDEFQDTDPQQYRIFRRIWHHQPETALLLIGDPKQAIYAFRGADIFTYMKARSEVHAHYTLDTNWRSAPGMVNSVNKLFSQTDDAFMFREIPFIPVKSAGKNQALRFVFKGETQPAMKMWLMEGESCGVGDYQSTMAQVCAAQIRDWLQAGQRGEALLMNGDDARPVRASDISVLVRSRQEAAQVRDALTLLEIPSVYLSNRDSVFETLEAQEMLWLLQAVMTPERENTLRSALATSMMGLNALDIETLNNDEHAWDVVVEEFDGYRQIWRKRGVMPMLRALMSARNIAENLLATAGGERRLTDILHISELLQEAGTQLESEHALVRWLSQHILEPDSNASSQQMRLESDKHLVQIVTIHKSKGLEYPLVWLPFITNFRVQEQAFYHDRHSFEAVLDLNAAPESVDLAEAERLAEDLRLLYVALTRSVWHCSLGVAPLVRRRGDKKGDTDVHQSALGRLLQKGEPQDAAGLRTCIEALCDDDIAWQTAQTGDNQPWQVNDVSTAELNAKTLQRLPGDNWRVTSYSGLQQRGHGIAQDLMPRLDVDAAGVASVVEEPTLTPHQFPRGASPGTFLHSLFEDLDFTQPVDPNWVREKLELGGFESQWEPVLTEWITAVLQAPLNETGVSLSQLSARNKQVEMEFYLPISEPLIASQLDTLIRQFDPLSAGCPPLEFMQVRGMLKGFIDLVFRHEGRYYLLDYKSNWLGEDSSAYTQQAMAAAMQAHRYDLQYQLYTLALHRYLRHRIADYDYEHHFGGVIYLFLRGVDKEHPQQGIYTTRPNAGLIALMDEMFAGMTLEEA

[6] = Counterscreen for AddAB inhibitors: absorbance-based bacterial cell-based high throughput dose response assay for inhibitors of bacterial viability. [Related pubchem assays (depositor defined):AID435030, AID449728, AID449731, AID488942, AID488955, AID488956]; type: functional
Nonstructural protein 1 = Nonstructural protein 1 (Influenza A virus, UniProt Q194T2); type: functional, Influenza A virus (A/California/07/2009(H1N1))
Chain of Nonstructural protein 1 (Q194T2 whole entry): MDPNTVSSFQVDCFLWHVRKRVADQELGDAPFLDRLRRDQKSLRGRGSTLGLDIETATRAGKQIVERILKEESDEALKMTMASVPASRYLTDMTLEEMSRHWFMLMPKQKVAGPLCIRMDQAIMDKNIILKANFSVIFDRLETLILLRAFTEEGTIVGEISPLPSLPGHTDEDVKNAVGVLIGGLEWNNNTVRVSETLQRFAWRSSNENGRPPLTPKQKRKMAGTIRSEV

[7] = target: Heat shock protein HSP 90-alpha (Homo sapiens, UniProt P07900); type: functional, organism-based
[8] = Luminescence Cell-Based Dose Retest to Confirm Inhibitors of Cancer Stem Cells. [Related pubchem assays (depositor defined):AID2717, AID2721]; type: functional; conditions: Homo sapiens
Beta-galactosidase = Beta-galactosidase (Escherichia coli, UniProt Q8VNN2); experiment: detection-enzyme interference by beta-gal modulators – biochemical, E. coli enzyme, set 3, artefact control for CCR6 antagonist project, dose response (AID 504712); type: functional
Chain of Beta-galactosidase (Q8VNN2 whole entry): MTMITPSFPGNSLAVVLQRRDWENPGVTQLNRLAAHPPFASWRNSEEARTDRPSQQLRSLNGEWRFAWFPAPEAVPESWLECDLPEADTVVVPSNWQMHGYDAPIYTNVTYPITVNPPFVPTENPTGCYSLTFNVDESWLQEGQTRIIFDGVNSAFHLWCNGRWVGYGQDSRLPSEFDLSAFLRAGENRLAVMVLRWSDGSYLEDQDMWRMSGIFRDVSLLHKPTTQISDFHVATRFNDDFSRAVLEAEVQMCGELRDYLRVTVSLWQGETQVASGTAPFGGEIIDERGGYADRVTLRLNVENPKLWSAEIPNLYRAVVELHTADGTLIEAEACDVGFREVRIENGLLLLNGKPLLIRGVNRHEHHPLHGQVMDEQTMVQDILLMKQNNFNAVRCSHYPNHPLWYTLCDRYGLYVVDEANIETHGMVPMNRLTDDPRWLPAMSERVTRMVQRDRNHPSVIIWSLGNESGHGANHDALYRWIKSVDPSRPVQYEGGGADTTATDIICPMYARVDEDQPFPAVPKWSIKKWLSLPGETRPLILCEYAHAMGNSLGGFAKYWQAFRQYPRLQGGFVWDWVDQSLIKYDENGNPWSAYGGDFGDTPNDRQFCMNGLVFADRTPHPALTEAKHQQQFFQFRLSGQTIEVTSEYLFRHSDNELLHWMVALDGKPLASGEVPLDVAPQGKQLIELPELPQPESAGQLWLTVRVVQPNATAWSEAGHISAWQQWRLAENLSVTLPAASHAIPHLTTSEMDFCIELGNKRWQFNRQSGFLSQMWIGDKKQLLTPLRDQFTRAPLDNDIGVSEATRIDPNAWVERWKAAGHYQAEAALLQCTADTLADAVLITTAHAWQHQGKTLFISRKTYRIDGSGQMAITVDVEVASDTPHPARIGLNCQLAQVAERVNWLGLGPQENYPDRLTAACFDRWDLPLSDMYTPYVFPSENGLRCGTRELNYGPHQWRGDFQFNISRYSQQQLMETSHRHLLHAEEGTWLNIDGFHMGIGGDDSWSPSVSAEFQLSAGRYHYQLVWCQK

Cytochrome P450 2C9 = Cytochrome P450 2C9 (Homo sapiens, UniProt P11712)
Chain of Cytochrome P450 2C9 (P11712 whole entry): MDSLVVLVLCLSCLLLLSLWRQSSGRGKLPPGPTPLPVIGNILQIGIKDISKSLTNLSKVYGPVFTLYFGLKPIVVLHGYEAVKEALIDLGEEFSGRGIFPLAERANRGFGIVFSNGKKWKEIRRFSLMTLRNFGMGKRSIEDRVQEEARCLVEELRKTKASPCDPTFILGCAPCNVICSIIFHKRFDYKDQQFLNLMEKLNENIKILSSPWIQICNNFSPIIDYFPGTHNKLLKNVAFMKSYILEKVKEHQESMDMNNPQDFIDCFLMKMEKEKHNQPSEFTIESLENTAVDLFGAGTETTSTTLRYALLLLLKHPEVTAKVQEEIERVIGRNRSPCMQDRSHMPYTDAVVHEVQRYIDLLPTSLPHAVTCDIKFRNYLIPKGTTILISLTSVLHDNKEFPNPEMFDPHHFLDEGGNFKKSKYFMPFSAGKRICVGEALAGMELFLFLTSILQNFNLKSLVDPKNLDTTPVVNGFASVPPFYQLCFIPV

Chain of SUMO E1/E2 (Q9UBE0 whole entry): as the sequence (Q9UBE0 whole entry) above
Chain of SUMO E1/E2 (Q9UBT2 whole entry): as the sequence (Q9UBT2 whole entry) above
Chain of SUMO E1/E2 (P63279 whole entry): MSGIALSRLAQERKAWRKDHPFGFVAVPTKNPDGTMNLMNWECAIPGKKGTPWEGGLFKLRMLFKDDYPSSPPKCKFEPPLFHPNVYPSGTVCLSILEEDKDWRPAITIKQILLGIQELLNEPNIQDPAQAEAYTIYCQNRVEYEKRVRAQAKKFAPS

COc1cc(-c2n[nH]c(=S)n2/N=C/c2cccn2C)cc(OC)c1OC
IC50 (SUMO E1/E2): > 100 µM (inactive)

COc1cccc(NC(=O)Nc2nnc(-c3ccccc3SCc3ccccc3)s2)c1
IC50 (SUMO-activating enzyme): 56.6 µM (active)

CNS(=O)(=O)c1cccc(C(=O)OCC(=O)/C=C2/N(C)c3ccccc3C2(C)C)c1
IC50 [1]: 1.64 µM (active)
IC50 [2]: 2.64 µM (active)

O=C(Nc1ccc(F)cc1)c1ccc(CN2CCc3ccccc3C2)cc1
IC50 [3]: > 80 µM (inactive)
IC50 (HEK293): > 20 µM (inactive)
IC50 (Tumor necrosis factor): 2.88 µM (active)
IC50 [4]: 3.11 µM (active)

COC(=O)[C@H]1[C@@H](c2ccccc2)[C@@]2(c3ccccc3)Oc3ccccc3[C@@]1(O)[C@@H]2O
AC50 (Cytochrome P450 2D6): inconclusive
AC50 (Cytochrome P450 3A4): 3.16 µM (inconclusive)
AC50 (Cytochrome P450 2C19): 3.98 µM (inconclusive)

Oc1nncc(N/N=C/c2ccccn2)n1
AC50 [5]: 4.65 µM (active)
IC50 (Exodeoxyribonuclease V): 27.5 µM (inactive)
IC50 [6]: 32.2 µM (inactive)
IC50 (Nonstructural protein 1): 1.44 µM (active)

O=C1C=CC(=O)N1c1ccc(OC(F)F)cc1
AC50 [7]: 1.65 µM (active)
AC50 [8]: 3.12 µM (active)
IC50 (Beta-galactosidase): > 66.6 µM (inactive)

C/C(=N\NC(=O)COc1ccc([N+](=O)[O-])cc1)C(C)(C)C
AC50 (Cytochrome P450 2D6): inconclusive
AC50 (Cytochrome P450 3A4): 28.2 µM (inconclusive)

Cc1ccc(N=C(S)N2CCN(C(=O)C3CCCO3)CC2)c(C)c1 (stereo not drawn)
AC50 (Cytochrome P450 2D6): inconclusive
AC50 (Cytochrome P450 2C9): inconclusive
AC50 (Cytochrome P450 3A4): 22.4 µM (inconclusive)
